# Results: patent publication US20230158001A1, “PHARMACEUTICAL COMPOSITION COMPRISING BENZIMIDAZOLE DERIVATIVE COMPOUND” (HK INNO.N CORPORATION, priority 2020, published 2023)
# Tests used:
# [1] = tested on: naproxen-induced peptic ulcer model; test: Anti-ulcer activity in animal model of acute peptic ulcer induced by naproxen; assay type: in vivo, SD rat; details: for ED50: Rattus norvegicus, read-out: ED50 (anti-ulcer efficacy)
# Method: Specifically, each of tegoprazan (0.1 to 10 mg/kg) and esomeprazole (0.3 to 30 mg/kg) was orally administered to each SD rat that has fasted for 72 hours.
# [2] = Pharmacokinetic interaction of tegoprazan and naproxen, alone or in combination (Cohort 1); assay type: in vivo, human (healthy adult males); details: for effect of co-administration on pharmacokinetic properties: co-administration of tegoprazan and naproxen compared with administration alone
# clinical = test: clinical; set-up: dose or concentration left out as unconfirmed
# Method: (§1) The pharmacokinetic interactions of tegoprazan and aceclofenac when administered alone or in combination were evaluated in healthy adult males.
# [3] = Pharmacokinetic interaction of tegoprazan and aceclofenac, alone or in combination (Cohort 2); details: for effect of co-administration on pharmacokinetic properties: co-administration of tegoprazan and aceclofenac compared with administration alone; for Css,max, Geometric LS Mean: 7 days, N = 16
# Method: as §1
# [4] = Pharmacokinetic interaction of tegoprazan and celecoxib, alone or in combination (Cohort 3); details: for effect of co-administration on pharmacokinetic properties: co-administration of tegoprazan and celecoxib compared with administration alone; for AUC: male, human, in vivo; for Css,max, Geometric LS Mean: 7 days, N = 13
# [5] = tegoprazan, co-administered with naproxen vs alone
# [6] = tegoprazan, Treatment A: 50 mg tegoprazan alone once a day
# [7] = tegoprazan, co-administered with celecoxib vs alone
# [8] = tegoprazan, co-administered with aceclofenac vs alone
smiles,measurement,setting,value
"COc1ccc2nc([S@@+]([O-])Cc3ncc(C)c(OC)c3C)[nH]c2c1 [esomeprazole, reference compound]",ED50,[1],4.12 mg/kg
"COc1ccc2cc([C@H](C)C(=O)O)ccc2c1 [Naproxen, naproxen, reference compound]",effect of co-administration on pharmacokinetic properties,[2],does not affect the pharmacokinetic properties
same,"Css,max, Geometric LS Mean","[2]; naproxen, Treatment B: 500 mg naproxen alone twice a day, 7 days, N = 17",92.34 ng/mL
same,"Css,max, Geometric LS Mean","[2]; naproxen, Treatment C: 50 mg tegoprazan once a day + 500 mg naproxen twice a day, 7 days, N = 17",95.60 ng/mL
"O=C(O)COC(=O)Cc1ccccc1Nc1c(Cl)cccc1Cl [Aceclofenac, aceclofenac, reference compound]",AUC,clinical,20100 ng·h/mL
same,effect of co-administration on pharmacokinetic properties,[3],does not affect the pharmacokinetic properties
"Cc1nc2cc(C(=O)N(C)C)cc(O[C@H]3CCOc4cc(F)cc(F)c43)c2[nH]1 [Tegoprazan, (S)-4-(5,7-difluorochroman-4-yloxy)-N,N,2-trimethyl-1H-benzo[d]imidazole-6-carboxamide]",ED50,[1],0.123 mg/kg
same,anti-ulcer activity,"[1]; naproxen-induced peptic ulcer model, SD rats, oral 0.1 to 10 mg/kg",excellent anti-ulcer activity
same,effect of co-administration on pharmacokinetic properties,[2],does not affect the pharmacokinetic properties
same,AUC,"[2]; male, human, in vivo, tegoprazan, Treatment A: 50 mg tegoprazan alone once a day, 7 days, N = 17, read-out: AUCτ, Geometric LS Mean",2650 ng·h/mL
same,"Css,max, Geometric LS Mean","[2]; tegoprazan, Treatment A: 50 mg tegoprazan alone once a day, 7 days, N = 17",512.79 ng/mL
same,"Css,max, Geometric LS Mean","[2]; tegoprazan, Treatment C: 50 mg tegoprazan once a day + 500 mg naproxen twice a day, 7 days, N = 17",505.59 ng/mL
same,"AUCτ, Geometric LS Mean Ratio (Treatment C/Treatment A), Point Estimate",[2]; [5],1.0105
same,"Css,max, Geometric LS Mean Ratio (Treatment C/Treatment A), Point Estimate",[2]; [5],0.9859
same,effect of co-administration on pharmacokinetic properties,[4],does not affect the pharmacokinetic properties
same,AUC,[4]; 50 mg,2990 ng·h/mL
same,"Css,max, Geometric LS Mean",[4]; [6],663.83 ng/mL
same,"Css,max, Geometric LS Mean","[4]; tegoprazan, Treatment G: 50 mg tegoprazan once a day + 200 mg celecoxib twice a day",676.24 ng/mL
same,"AUCτ, Geometric LS Mean Ratio (Treatment G/Treatment A), Point Estimate",[4]; [7],1.0111
same,"Css,max, Geometric LS Mean Ratio (Treatment G/Treatment A), Point Estimate",[4]; [7],1.0187
same,effect of co-administration on pharmacokinetic properties,[3],does not affect the pharmacokinetic properties
same,AUC,"[3]; male, human, in vivo, 50 mg",2680 ng·h/mL
same,"Css,max, Geometric LS Mean",[3]; [6],562.13 ng/mL
same,"Css,max, Geometric LS Mean","[3]; tegoprazan, Treatment E: 50 mg tegoprazan once a day + 100 mg aceclofenac twice a day",529.98 ng/mL
same,"AUCτ, Geometric LS Mean Ratio (Treatment E/Treatment A), Point Estimate",[3]; [8],1.0269
same,"Css,max, Geometric LS Mean Ratio (Treatment E/Treatment A), Point Estimate",[3]; [8],0.9428
"Cc1ccc(-c2cc(C(F)(F)F)nn2-c2ccc(S(N)(=O)=O)cc2)cc1 [Celecoxib, celecoxib, reference compound]","Css,max, Geometric LS Mean","[4]; celecoxib, Treatment F: 200 mg celecoxib alone twice a day",1140 ng/mL
same,"Css,max, Geometric LS Mean","[4]; celecoxib, Treatment G: 50 mg tegoprazan once a day + 200 mg celecoxib twice a day",1350 ng/mL
same,effect of co-administration on pharmacokinetic properties,[4],does not affect the pharmacokinetic properties
same,AUC,[4]; 200 mg,7800 ng·h/mL
